Read-outs that look alike come from different tables or passages of the source. Marks after values point to notes of the source that are not given here.
Key:
IL-6 = IL-6 release by LPS-induced macrophages (ELISA); assay type: cell-based, mouse; conditions: for IL-6 (pg/mL): untreated LPS control 1148 ± 35; for IC50: Mus musculus, RAW264.7, RAW 264.7, LPS + compound 6 h, read-out: IL-6, concentration necessary to halve the release (IC50)
Description: To determine the level of inflammatory cytokine IL-6, macrophages were cultivated with LPS (1 µg/mL) and the tested compounds (7–50 µM) for 6 h. After incubation, the plates were centrifuged (1000× g; 10 min, 4 °C) and then the medium was removed and frozen to −80 °C. Prior to the detection, the samples were diluted in ELISA diluent in a 1:10 ratio. Production of the cytokine was determined by uncoated ELISA performed according to the manufacturer’s instructions.

HepG2 cells = experiment: CAA (cellular antioxidant activity) assay; assay type: cell-based; conditions: Homo sapiens
Description: For the CAA assay, human hepatocellular carcinoma HepG2 cells (ATCC, Manassas, VA, USA) were seeded into a 96-well microplate at a density of 1 × 10^5 cells/well in EMEM medium supplemented with 10% of FBS, 2 mM L-glutamine and 1 × antibiotic antimycotic solution. The cells were maintained in a CO2 incubator (5% CO2, 37 °C, Memmert GmbH & Co, Büchenbach, Germany). The following day, the plates were washed with PBS and new fresh DMEM was added into each well supplemented with tested samples in the concentration range of 6.25–100 µM and fluorescent probe DCFH-DA (12.5 mg/L). After 1 h of incubation at 37 °C, the medium was replaced with AAPH solution (0.16 mg/mL in PBS), except for the negative control, where PBS was added instead. Directly, the fluorescence was recorded for 2 h in 5 min steps at 485/540 nm excitation/emission (ex./em.).

ABCC5 = ABCC5 mRNA expression (real-time PCR); assay type: cell-based, human; conditions: A2780/DOX, 10 µM combined with doxorubicin at IC25, 48 h
Description: (§1) The A2780/DOX cell line was seeded into 5 cm Petri dishes with DMEM medium at 1 × 10^5 cell/mL. After 24 h, the dishes were washed with PBS and new DMEM medium supplemented with doxorubicin (at concentration equal to IC25) and samples (10 µM) were added. After 48 h of treatment, the cells were washed with PBS and harvested using the standard trypsin-EDTA procedure. The harvested cells were centrifuged (3200× g; 10 min, 4 °C). The supernatant was discarded, and the pellets were washed with 1.5 mL of cooled PBS (5400× g; 10 min, 4 °C). The washing step was repeated with 1 mL of PBS and the cells were centrifuged again (10,000× g; 3 min, 4 °C). Afterwards, the pellets were resuspended in 1 mL of Trizol (Invitrogen, Carlsbad, CA, USA) and transferred into pre-cooled RNase-free microfuge tubes. The samples were stored at −80 °C.
(§2) A Quant-iT RiboGreen RNA Assay Kit (Invitrogen) was used to determine the RNA concentration using the Infinite M200 plate reader (Tecan, Männedor, Switzerland). The cDNA was prepared from 0.5 µg of total RNA using a RevertAid First Strand Synthesis cDNA Kit (MBI Fermentas, Vilnius, Lithuania). The amplification of the ubiquitin C gene fragment was used to determine the quality of cDNA.
(§3) The experiment was performed using the ViiA7 Real-Time polymerase chain reaction (PCR) System (Life Technologies, Camarillo, CA, USA) with a 384-well block. Before quantitative real-time PCR, the master mix was prepared by mixing 2 µL of 8 × diluted cDNA, 1.75 µL of RNase free water, 1 µL of 5 × HotFIREPol Probe quantitative PCR Mix Plus (Solis Biodyne, Tartu, Estonia) and 0.25 µL of specific 20 × TaqMan Gene Expression Assay (Life Technologies), giving 5 µL of final reaction volume. Cycling parameters were: initial hold at 50 °C for 2 min and denaturation at 95 °C for 10 min, followed by 45 cycles consisting of denaturation at 95 °C for 15 s and annealing/extension at 60 °C for 1 min. After each extension phase, the fluorescence values were acquired. Duplicate samples were used for measurement and samples with a standard deviation of duplicates > 1.0 cycle threshold (Ct) were re-analyzed. The real time PCR procedure was maintained according to MIQE (Minimum information for publication of quantitative real-time PCR experiments) guidelines. The software REST 2009 (Qiagen, Hilden, Germany) served to compare relative transcript levels of genes in the cell line.

ABCB2 = ABCB2 mRNA expression (real-time PCR); assay type: cell-based, human; conditions: A2780/DOX, 10 µM combined with doxorubicin at IC25, 48 h
Description: as §1, §2, §3

TNF-α = TNF-α release by LPS-induced macrophages (ELISA); assay type: cell-based, mouse; conditions: for IC50: Mus musculus
Description: To determine the level of inflammatory cytokine TNF-α, macrophages were pre-cultivated with the tested compounds (12.5–50 µM) for 24 h. Thereafter, the plates were washed with PBS and new MEM medium enriched with LPS (1 µg/mL) was added to the wells. After 2 h of incubation, the plates were centrifuged (1000× g; 10 min, 4 °C) and then the medium was removed and frozen to −80 °C. Prior to the detection, the samples were diluted in ELISA diluent in a 1:10 ratio. […]

[1] = tested on: nitric oxide (NO) production by LPS-stimulated macrophages (RAW 264.7); experiment: NO production by LPS-stimulated macrophages (Griess); assay type: cell-based, mouse; conditions: for IC50: Mus musculus, read-out: NO Production, concentration necessary to halve NO production (IC50)
Description: Immunomodulatory effect of tested compounds was determined as their ability to decrease nitric oxide (NO) production by LPS-stimulated macrophages (RAW 264.7, Sigma-Aldrich). Briefly, the cells were seeded into the 96-well plate at a density of 1 × 10^6 cells/mL in DMEM medium (supplemented with 2 mM L-glutamine and 1 × antibiotic antimycotic solution). After 48 h, the cells were washed with PBS. The MEM medium enriched with LPS (1 µg/mL) was added to the wells, together with the samples in the concentration range of 6.25–100 µM at a final volume of 100 µL. Indomethacin, a non-steroidal anti-inflammatory drug, was tested as a positive control in the concentration range 6.25–100 µM. After 24 h, the medium was used for the quantification of NO and inflammatory cytokines.
After 15 min, absorbance was recorded at 540 nm.

[2] = HepG2, read-out: CAA, concentration necessary to halve the fluorescence response (IC50)
[3] = RAW264.7, read-out: TNF-α, concentration necessary to halve the release (IC50)
[4] = compound 12.5 µM, untreated LPS control 2954 ± 92
[5] = compound 25 µM, untreated LPS control 2954 ± 92
[6] = compound 50 µM, untreated LPS control 2954 ± 92
[7] = HepG2, DCFH-DA/AAPH, read-out: CAA, concentration necessary to halve the fluorescence response (IC50)
[8] = RAW264.7, RAW 264.7, 24 h pre-cultivation, then LPS 2 h, read-out: TNF-α, concentration necessary to halve the release (IC50)
[9] = RAW264.7, RAW 264.7, LPS 1 µg/mL, 24 h

| SMILES | IL-6 (pg/mL) (IL-6; compound 7 µM) | IL-6 (pg/mL) (IL-6; compound 15 µM) | IL-6 (pg/mL) (IL-6; compound 50 µM) | IC50 (HepG2 cells; [2]) [µM] | ABCC5 Expression Difference (ABCC5) | ABCB2 Expression Difference (ABCB2) | IC50 (TNF-α; [3]) [µM] | TNF-α (pg/mL) (TNF-α; [4]) | TNF-α (pg/mL) (TNF-α; [5]) | TNF-α (pg/mL) (TNF-α; [6]) | IC50 ([1]; RAW264.7, 24 h) [µM] | IC50 (IL-6) [µM] | IC50 (HepG2 cells; [7]) [µM] | IC50 (TNF-α; [8]) [µM] | IC50 [1, 9] [µM] | further results |
| --- | --- | --- | --- | --- | --- | --- | --- | --- | --- | --- | --- | --- | --- | --- | --- | --- |
| COc1cc([C@H]2Oc3cc(-c4oc5cc(O)cc(O)c5c(=O)c4O)ccc3O[C@@H]2CO)ccc1O [Dehydrosilybin A, 2,3-dehydrosilybin A] | 292 ± 15 ^a pg/mL | 79 ± 8 ^a pg/mL | 0 ± 0 ^a pg/mL | 11.8 ± 0.7 | 1.116 | 5.557 | 20.7 ± 0.4 | 2338 ± 63 ^ab pg/mL | 777 ± 28 ^a pg/mL | 0 ± 0 ^a pg/mL | 23.2 ± 1.4 | – | – | – | – | IL-6 (pg/mL) (IL-6; compound 50 µM, listed as dehydrosilybin A): under the detection limit of the ELISA assay; IL-6 modulation effect higher in comparison with its diastereomeric mixture (IL-6; vs dehydrosilybin AB): approximately 70%; decrease of release of TNF-α (TNF-α; compound 25 µM, from 2954 pg/mL to 777 pg/mL): ~4 times; TNF-α (TNF-α; compound 25 µM, untreated LPS control 2954 ± 92, listed as dehydrosilybin A): 777 pg/mL; TNF-α (pg/mL) (TNF-α; compound 50 µM, untreated LPS control 2954 ± 92, listed as dehydrosilybin A): under the detection limit of the ELISA assay |
| COc1cc(C2Oc3cc(-c4oc5cc(O)cc(O)c5c(=O)c4O)ccc3OC2CO)ccc1O (centres unmarked) [Dehydrosilybin AB, 2,3-dehydrosilybin] | 997 ± 41 ^d pg/mL | 441 ± 19 ^d pg/mL | 0 ± 0 ^a pg/mL | 9.2 ± 0.5 | 1.288 | 5.145 | 26.7 ± 0.1 | 2617 ± 118 ^b pg/mL | 2364 ± 108 ^c pg/mL | 0 ± 0 ^a pg/mL | 19.1 ± 0.2 | – | – | – | – | IL-6 (pg/mL) (IL-6; compound 50 µM, listed as dehydrosilybin AB): under the detection limit of the ELISA assay; TNF-α (pg/mL) (TNF-α; compound 50 µM, untreated LPS control 2954 ± 92, listed as dehydrosilybin AB): under the detection limit of the ELISA assay |
| COc1cc([C@@H]2Oc3cc(-c4oc5cc(O)cc(O)c5c(=O)c4O)ccc3O[C@H]2CO)ccc1O [Dehydrosilybin B, 2,3-dehydrosilybin B] | 582 ± 19 ^c pg/mL | 301 ± 9 ^c pg/mL | 122 ± 3 ^b,c pg/mL | 12.1 ± 0.4 | 1.385 | 9.286 | 44.2 ± 0.3 | 2528 ± 171 ^b pg/mL | 2774 ± 84 ^d pg/mL | 982 ± 25 ^c pg/mL | 31.3 ± 2.4 | – | – | – | – | immunomodulation effect lower compared to its diastereomeric mixture ([1]; NO production, vs dehydrosilybin AB): approximately 40% |
| COc1cc([C@H]2Oc3cc([C@H]4Oc5cc(O)cc(O)c5C(=O)[C@@H]4O)ccc3O[C@@H]2CO)ccc1O [Silybin A, silybin A] | 422 ± 42 ^b pg/mL | 271 ± 15 ^c pg/mL | 125 ± 16 ^c pg/mL | – | 1.782 | 17.975 | – | 2092 ± 48 ^a pg/mL | 1476 ± 39 ^b pg/mL | 415 ± 4 ^b pg/mL | – | 8.4 ± 0.3 | 9.8 ± 0.4 | 29.9 ± 1.35 | 26.7 ± 1.6 | – |
| COc1cc(C2Oc3cc([C@H]4Oc5cc(O)cc(O)c5C(=O)[C@@H]4O)ccc3OC2CO)ccc1O (some centres unmarked) [Silybin AB, silybin] | 311 ± 18 ^a pg/mL | 173 ± 5 ^b pg/mL | 83 ± 4 ^b pg/mL | – | 1.787 | 18.114 | – | 2497 ± 37 ^b pg/mL | 2425 ± 145 ^c pg/mL | 1177 ± 75 ^d pg/mL | – | 4.8 ± 0.3 | 10.7 ± 0.9 | 38.7 | 23.6 ± 1.2 | – |
| COc1cc([C@@H]2Oc3cc([C@H]4Oc5cc(O)cc(O)c5C(=O)[C@@H]4O)ccc3O[C@H]2CO)ccc1O [Silybin B, silybin B] | 297 ± 23 ^a pg/mL | 166 ± 6 ^b pg/mL | 37 ± 2 ^a pg/mL | – | 1.473 | 15.698 | – | 2441 ± 68 ^b pg/mL | 2375 ± 64 ^c pg/mL | 1792 ± 63 ^e pg/mL | – | 5.2 ± 0.2 | 8.9 ± 0.3 | 53.3 ± 0.7 | 26 ± 3 | – |
